# Experimental data from ChEMBL document CHEMBL5247678, “Design, Synthesis, and Structure-Activity Relationships of Biaryl Anilines as Subtype-Selective PPAR-alpha Agonists” (ACS Med Chem Lett, 2023).
# Assays:
# [1] = Cytotoxicity against human RPE cells measured upto 50 uM; assay type: toxicity, cell-based
# [2] = Cytotoxicity against human RPE cells assessed as cell viability at 50 uM; assay type: toxicity, cell-based
SMILES,Activity [1],Activity [2]
O=C(O)c1cc(F)cc(NCc2ccc(-c3ccccc3)cc2)c1,Non-Toxic,–
O=C(O)c1cc(F)cc(NCc2ccc(-c3ccccc3C(F)(F)F)cc2)c1,Non-Toxic,–
O=C(O)c1cc(F)cc(NCc2cn(-c3ccc(C(F)(F)F)cc3)nn2)c1,Non-Toxic,Toxic
O=C(O)c1cc(F)cc(NCc2ccc(-c3ccc(C(F)(F)F)cc3)cc2)c1,Non-Toxic,–
